Experimental data reported in patent US20110201869A1, “METHOD AND APPARATUS FOR ENHANCED TRANSDERMAL DIFFUSION” (OBJ LIMITED, priority 2008, published 2011).

Legend:
[1] = in vitro Franz Cell diffusion study through excised epidermis; type: in vitro ADME, piglet
Description: FIG. 4 is a plot of the substance Tetracaine through excised piglet ear epidermis in an in vitro Franz Cell diffusion study. Epidermal membranes were obtained by heat separation (60 sec at 60° C., Kligman and Christophers 1963). Skin integrity was determined by conductance measurement before the experiment. Skin sections from each ear were matched over the groups per experiment. Epidermal membranes were placed between the donor and receptor compartments of Franz-type diffusion cells with the stratum corneum facing the donor chamber. The epidermal membranes were equilibrated with the receptor solution (USP PBS, pH 7.4) for 30 min. The receptor compartment of the cell was immersed in a water bath at 37±0.5° C., and stirred every 5 min throughout the experiment. After equilibration, the donor solution consisting of 1 mL of 2 (FIG. 4a) or 4% Tetracaine HCL (FIG. 4B; Sigma) in PBS was added, and the present invention was suspended 3 mm above the surface of the donor fluid (i.e. 8 mm above the epidermal surface). The passive diffusion cells received the same donor drug concentration and were covered with parafilm only, i.e. no material of the present invention was applied. The administration period was 0-1 hr. Samples of the receptor solution were removed and replaced with fresh buffer over a 60 minute period. All samples were analysed for Tetracaine hydrochloride content by spectrophotometric detection (absorbance at 229 nm). The cumulative amount of Tetracaine hydrochloride in the receptor compartment versus time was plotted for both experiments. After the diffusion experiment the skin, still fixed in the diffusion chamber, was stained with standard HE dye. The diffusion area was investigated under a microscope for the occurrence of damage to the skin. Data derived from epidermis with low skin integrity was excluded from analysis and graphical depiction.
FIG. 5 is a plot of the substance Sumatriptan through excised piglet ear epidermis in an in vitro Franz Cell diffusion study. […] All samples were analysed for Sumatriptan content by spectrophotometric detection (absorbance at 285 nm). […]

[2] = Methyl Nicotinate Laser-Doppler vasodilation model (transdermal delivery in vivo); parameters: species or system human
Excerpt: FIG. 7 depicts the enhancing effects of the present invention on the delivery of Methyl Nicotinate through human skin in vivo. The Methyl Nicotinate Laser-Doppler vasodilation model was used (see Hollaway et al, J. Invest Dermatol 69:306-309, 1977; Wester et al., J. Invest Dermatol 83:515-517, 1984). […] In short, successful transdermal delivery of the rubifacient Methyl Nicotinate through the skin results in pronounced vasodilation, increased perfusion and erythema. […] The Methyl Nicotinate induced vasodilation can be measured using a non-invasive Laser Doppler Flow or Perfusion meter with data being provided as a numeric value equitable to local in vivo blood perfusion. The present experiment involved the saturation of 4 cm^2 tissue paper units with Methyl Nicotinate (5 mmolar in PBS). The Methyl Nicotinate tissues were applied to the skin of the volar forearm. The present invention (4 cm^2) and the passive surrogate units were placed over the Methyl Nicotinate soaked paper units. For 5 minutes one active and one passive unit were applied adjacently onto the skin of the forearm. Subsequently, all materials were removed from the skin and the skin was patted dry. Laser Doppler perfusion probes (Moor Instruments Laser Doppler Perfusion Meter) were placed over both areas and blood perfusion rates were monitored for a 30 minute period. […]

CNS(=O)(=O)Cc1ccc2[nH]cc(CCN(C)C)c2c1 [Sumatriptan]
diffusion through excised epidermis under the influence of the present invention compared to passive diffusion ([1]; Sumatriptan succinate 2 mg/ml donor, 0-30 min, FIG. 5): enhanced diffusion

CCCCNc1ccc(C(=O)OCCN(C)C)cc1 [Tetracaine]
diffusion through excised epidermis under the influence of the present invention compared to passive diffusion ([1]; 2% Tetracaine HCL in PBS donor, 0-1 hr, magnetic device suspended 8 mm above epidermal surface, FIG. 4A): enhanced diffusion
diffusion through excised epidermis under the influence of the present invention compared to passive diffusion ([1]; 4% Tetracaine HCL in PBS donor, 0-1 hr, magnetic device suspended 8 mm above epidermal surface, FIG. 4B): enhanced diffusion

COC(=O)c1cccnc1 [Methyl Nicotinate]
delivery through human skin in vivo with the present invention compared with passive diffusion (blood perfusion by Laser Doppler) ([2]; 5 mmolar in PBS, 5 minutes application on volar forearm, perfusion monitored 30 minutes, FIG. 7): effective at enhanced delivery
diffusion with 480 gauss / 300 poles per meter versus 120 gauss / 500 poles per meter device ([2]; 2 milli-molar, human forearm skin in vivo, FIG. 8): similar
